Two molecules from paper PMC3250956, “Functional characterization and analgesic effects of mixed cannabinoid receptor/T-type channel ligands” (Molecular Pain, 2011) can be followed below.

SMILES strings stand for the structures. Like-named read-outs stand apart in the source and are kept apart here.

One experiment addresses T1, rat 5-HT2C (Rattus norvegicus, UniProt P08909).
T1 construct: expressed in transfected cells; host or cells: HEK293 (Flp-In system, pcDNA5.0FRT)
T1 sequence (P08909 33-460): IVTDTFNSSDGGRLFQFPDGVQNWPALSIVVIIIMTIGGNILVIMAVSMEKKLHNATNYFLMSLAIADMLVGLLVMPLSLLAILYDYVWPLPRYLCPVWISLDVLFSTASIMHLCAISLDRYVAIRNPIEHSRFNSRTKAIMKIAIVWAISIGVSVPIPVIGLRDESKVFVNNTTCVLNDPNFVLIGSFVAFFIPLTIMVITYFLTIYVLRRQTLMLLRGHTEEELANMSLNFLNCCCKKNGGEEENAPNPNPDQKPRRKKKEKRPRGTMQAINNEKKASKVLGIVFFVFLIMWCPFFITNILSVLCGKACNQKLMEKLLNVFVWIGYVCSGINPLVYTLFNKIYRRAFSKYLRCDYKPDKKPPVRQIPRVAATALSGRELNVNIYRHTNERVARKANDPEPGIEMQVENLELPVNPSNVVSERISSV
As to the kind of experiment: Primary radioligand competitive binding assay, [3H]mesulergine. The settings on record: ligand 10 μM, HEK293 cells. The protocol: (§1) HEK293 cells and CHO cells were used in the radioligand binding assay while tsA-201 cells were used in the electrophysiological study. Human CB2, human 5-HT2A, rat 5-HT2C used in the binding studies were cloned into pcDNA5.0FRT and cell lines were made using the FlpIn system from Invitrogen. tsA-201 cell culture and transient calcium channel transfection were performed as described previously. In brief, tsA-201 cells were transfected using the calcium phosphate method. Cav3.1, 3.2 and 3.3 α1 subunits were transfected individually with yellow fluorescent protein as a transfection marker.
Radioligand binding data were obtained using National Institute of Mental Health's Psychoactive Drug Screening Program (NIMH/PDSP) using the same protocol described for CB1 and CB2 binding experiments. Transfected HEK293 (human 5-HT2A or rat 5-HT2C) cells were used. The radioligands were [^3H]ketanserin (0.5 nM) and [^3H]mesulergine (0.5 nM) for respectively 5-HT2A and 5-HT2C experiments. Non-specific binding was determined in the presence of 10 μM chlorpromazine for both 5-HT2A and 5-HT2C binding experiments. Cells were harvested and homogenized in 50 mM Tris HCl, 10 mM MgCl2, 0.1 mM EDTA, pH 7.4. Incubation of radioreceptor binding assay mixtures was 1.5 hours at room temperature in the dark.

In experiment [1] the target is T2, Human CB2 (Homo sapiens, UniProt P34972). The experiment in a line: GTPγ[35S] functional assay, CHO cell membrane extracts. The format is biochemical. On the set-up: expressed in transfected cells; host or cells: CHO cells (membrane extracts). The note with it: for Emax: read-out: GTPγ[35S] functional assays Human CB2 Emax.
T2 sequence (P34972 whole entry): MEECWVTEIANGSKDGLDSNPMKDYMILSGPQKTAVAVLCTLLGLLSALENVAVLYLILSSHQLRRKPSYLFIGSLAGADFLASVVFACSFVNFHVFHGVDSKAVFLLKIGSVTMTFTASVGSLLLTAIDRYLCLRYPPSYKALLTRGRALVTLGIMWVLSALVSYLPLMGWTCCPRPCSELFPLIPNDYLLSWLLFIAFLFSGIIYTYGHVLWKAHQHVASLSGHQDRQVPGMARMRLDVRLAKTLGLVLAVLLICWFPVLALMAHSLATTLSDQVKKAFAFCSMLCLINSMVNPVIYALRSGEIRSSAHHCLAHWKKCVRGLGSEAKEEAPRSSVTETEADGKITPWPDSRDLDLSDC
Another experiment addresses T3, Rat CB1 (Rattus norvegicus, UniProt P20272).
T3 construct: membrane fractions prepared from rat brain homogenate expressing CB1 receptor; from tissue; host or cells: rat brain homogenate
The experiment in a line: Radioligand competitive binding, [3H]CP55940, rat brain homogenate. The settings on record: for Rat CB1 (%) primary radioligand competitive binding: ligand 10 μM, rat brain homogenates. The procedure:
(§2) CB1 and CB2 radioligand binding data were obtained using National Institute of Mental Health (NIMH) Psychoactive Drug Screening Program (PDSP) resources as described earlier. Compounds were screened in a competitive binding experiment using, respectively, membrane fractions prepared from rat brain homogenate expressing CB1 receptor and HEK293 cells expressing the human CB2 receptor. Experiments were conducted at a range of different concentrations and in duplicate. The competition binding experiment for CB1 and CB2 was performed in 96 well plates containing Standard Binding Buffer (50 mM Tris HCl, 1 mM EDTA, 3 mM MgCl2, 5 mg/ml fatty acid-free BSA, pH 7.4). The radioligand was [^3H]CP55940, and the reference compound was CP55940. A solution of the compound to be tested was prepared as a 1 mg/ml stock in DMSO and then diluted in Standard Binding Buffer by serial dilution. Radioligand was diluted to five times the assay concentration in Standard Binding Buffer. Aliquots (50 μl) of radioligand were dispensed into the wells of a 96-well plate containing 100 μl of Standard Binding Buffer. Then, duplicate 50-μl aliquots of the test and reference compound dilutions were added. Finally, crude membrane fractions of cells were resuspended in 3 ml of chilled Standard Binding Buffer and homogenized by several passages through a 26 gauge needle, then 50 μl were dispensed into each well. The 250-μl reactions were incubated at room temperature for 1.5 hours, and then harvested by rapid filtration onto Whatman GF/B glass fiber filters pre-soaked with 0.3% polyethyleneimine using a 96-well Brandel harverster. Four rapid 500-μl washes were performed. Filters were placed in 6-ml scintillation tubes and allowed to dry overnight. Bound radioactivity was harvested onto 0.3% polyethyleneimine-treated, 96-well filter mats using a 96-well Filtermate harvester. The filter mats were dried, then scintillant was melted onto the filters and the radioactivity retained on the filters counted in a Microbeta scintillation counter. Raw data (dpm) representing total radioligand binding (i.e., specific + non-specific binding) were plotted as a function of the logarithm of the molar concentration of the competitor (i.e., test or reference compound). Non-linear regression of the normalized (i.e., percent radioligand binding compared to that observed in the absence of test or reference compound) raw data was performed in Prism 4.0 (GraphPad Software) using the built-in three parameter logistic model describing ligand competition binding to radioligand-labeled sites: y = bottom + [(top-bottom)/(1 + 10 × -logIC50)] where bottom equals the residual radioligand binding measured in the presence of 10 μM reference compound (i.e., non-specific binding) and top equals the total radioligand binding observed in the absence of competitor. The log IC50 (i.e., the log of the ligand concentration that reduces radioligand binding by 50%) is thus estimated from the data and used to obtain the Ki by applying the Cheng-Prusoff approximation: Ki = IC50/(1 + [ligand]/KD) where [ligand] equals the assay radioligand concentration and KD equals the affinity constant of the radioligand for the target receptor.

For experiment [2], the target named is T2, Human CB2. The experiment in a line: Radioligand competitive binding, [3H]CP55940, HEK293 cells. Details: expressed in transfected cells. The note with it: for Human CB2 (%) primary radioligand competitive binding: ligand 10 μM, HEK293 cells. The procedure: as §1, §2

T3 sequence (P20272 whole entry): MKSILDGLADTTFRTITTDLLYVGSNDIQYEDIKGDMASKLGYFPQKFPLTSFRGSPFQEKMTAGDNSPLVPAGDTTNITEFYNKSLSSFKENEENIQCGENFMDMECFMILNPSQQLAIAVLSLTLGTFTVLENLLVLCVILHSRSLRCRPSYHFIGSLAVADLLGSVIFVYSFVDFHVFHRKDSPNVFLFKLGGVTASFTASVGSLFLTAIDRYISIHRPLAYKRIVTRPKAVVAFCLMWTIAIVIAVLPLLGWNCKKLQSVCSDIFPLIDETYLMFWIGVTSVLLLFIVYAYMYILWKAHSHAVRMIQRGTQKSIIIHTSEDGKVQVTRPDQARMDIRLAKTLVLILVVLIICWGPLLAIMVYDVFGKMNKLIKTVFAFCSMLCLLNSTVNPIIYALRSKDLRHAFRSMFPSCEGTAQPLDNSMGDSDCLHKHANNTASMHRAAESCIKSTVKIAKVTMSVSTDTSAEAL

`CCCCCn1c2ccc(C(=O)N3CCCCC3)cc2c2ccc(OC)cc21` [NMP-4]: the “Rat 5-HT2C (%) primary radioligand competitive binding” value on rat 5-HT2C is listed as -9.3%. Moreover, on Human CB2 [1], the concentration giving a half-maximal response (EC50) is 9.8 ± 0.3 nM and the Emax was -76.4%. The Ki on Rat CB1 (NA: not active at 1 μM, read-out: Mean Ki Rat CB1) was 12.8 ± 1.8 nM. Moreover, the “Rat CB1 (%) primary radioligand competitive binding” value at Rat CB1 is listed as 99.3%. Also, the Ki at Human CB2 [2] (NA: not active at 1 μM, read-out: Mean Ki Human CB2) was determined as 7.5 ± 0.7 nM. For the same molecule, the “Human CB2 (%) primary radioligand competitive binding” value on Human CB2 [2] worked out at 104.4%.
`CCCCCn1c2c(c3ccc(OC)cc31)CN(C(=O)c1ccccc1)CC2` [NMP-144]: the “Rat 5-HT2C (%) primary radioligand competitive binding” value on rat 5-HT2C is listed as 13%. Besides, on Human CB2 [1], the half-maximal effective concentration (EC50) was 35.7 ± 13.9 nM and the Emax is -48.1%. On Rat CB1, the Ki stood at 1140 ± 264 nM and the “Rat CB1 (%) primary radioligand competitive binding” value is listed as 67.4%. Moreover, at Human CB2 [2], the inhibition constant Ki was found to be 706 ± 110 nM and the “Human CB2 (%) primary radioligand competitive binding” value is given as 90.6%.

The EC50 is the concentration needed to bring the measured effect to its halfway point. As usually defined, the Emax is the size of the effect at its maximum, as opposed to the concentration needed. What is called Ki is a dissociation constant, usually derived from enzyme kinetics or from competition with a known ligand.
